Assay results reported in article PMC8067507, “Aryl Urea Based Scaffolds for Multitarget Drug Discovery in Anticancer Immunotherapies” (Pharmaceuticals, 2021).

Legend:
[1] = system: A549 (pulmonary adenocarcinoma); assay: Cell proliferation assay (MTT); format: cell-based; conditions: Homo sapiens, A549, 48 h, 2 days incubation, average ± SD of three experiments
From the text: (§1) The ability of Ureas 13–33 to inhibit cell proliferation was established by means of their IC50 values towards the human tumor cell lines HT-29 (colon adenocarcinoma), MCF-7 (breast adenocarcinoma), HeLa (epithelioid cervix carcinoma) and A549 (pulmonary adenocarcinoma), as well as towards the endothelial cell line HMEC-1 (human microvascular endothelial cells) and the non-tumor cell line HEK-293 (human embryonic kidney cells).
(§2) HT-29, MCF-7, HeLa, A549 and HEK-293 cell lines were maintained in Dulbecco’s modified Eagle’s medium (DMEM) containing glucose (1 g/L), glutamine (2 mM), penicillin (50 μg/mL), streptomycin (50 μg/mL), and amphotericin B (1.25 μg/mL), supplemented with 10% FBS. HMEC-1 cell line was maintained in Dulbecco’s modified Eagle’s medium (DMEM)/low glucose containing glutamine (2 mM), penicillin (50 μg/mL), streptomycin (50 μg/mL), and amphotericin B (1.25 μg/mL), supplemented with 10% FBS. For the development of tube formation assays in Matrigel, HMEC-1 cells were cultured in EGM-2MV Medium supplemented with EGM-2MV SingleQuots.
(§3) In 96-well plates, 3 × 10^3 (HeLa, A549, HMEC-1, HEK-293) or 5 × 10^3 (HT-29, MCF-7) cells per well were incubated with serial dilutions of the tested compounds in a total volume of 100 μL of their respective growth media. The 3-(4,5-dimethylthiazol-2-yl)-2,5-diphenyltetrazolium bromide (MTT; Sigma Chemical Co.) dye reduction assay in 96-well microplates was used. After 2 days of incubation (37 °C, 5% CO2 in a humid atmosphere), 10 μL of MTT (5 mg/mL in phosphate-buffered saline, PBS) was added to each well, and the plate was incubated for a further 3 h (37 °C). After that, the supernatant was discarded and replaced by 100 µL of DMSO to dissolve formazan crystals. The absorbance was then read at 540 nm by spectrophotometry. For all concentrations of compound, cell viability was expressed as the percentage of the ratio between the mean absorbance of treated cells and the mean absorbance of untreated cells. Three independent experiments were performed, and the IC50 values (i.e., concentration half inhibiting cell proliferation) were graphically determined using GraphPad Prism 4 software.

[2] = system: HEK-293 (human embryonic kidney cells); assay: Cell proliferation assay (MTT); format: cell-based; conditions: HEK293, 48 h, 2 days incubation, average ± SD of three experiments
From the text: as §1, §2, §3

[3] = system: HMEC-1 (human microvascular endothelial cells); assay: Cell proliferation assay (MTT); format: cell-based; conditions: HMEC-1, 48 h, 2 days incubation, average ± SD of three experiments
From the text: as §1, §2, §3

[4] = system: HT-29 (colon adenocarcinoma); assay: Cell proliferation assay (MTT); format: cell-based; conditions: Homo sapiens, HT-29, 48 h, 2 days incubation, average ± SD of three experiments
From the text: as §1, §2, §3

[5] = system: HeLa (epithelioid cervix carcinoma); assay: Cell proliferation assay (MTT); format: cell-based; conditions: Homo sapiens, 48 h, 2 days incubation, average ± SD of three experiments
From the text: as §1, §2, §3

[6] = system: MCF-7 (breast adenocarcinoma); assay: Cell proliferation assay (MTT); format: cell-based; conditions: Homo sapiens, MCF7, 48 h, 2 days incubation, average ± SD of three experiments
From the text: as §1, §2, §3

PD-L1 [7] = biological target: T1, PD-L1 (Homo sapiens, UniProt Q9NZQ7); assay: PD-L1 quantification by flow cytometry in HT-29; format: cell-based; conditions: HT-29, 10 μM, 24 h, referred to control (DMSO)
Description: (§4) We evaluated the effect of the selected compounds on PD-L1 and on c-Myc proteins by flow cytometry after 24 h treatment at 10 μM concentration of compounds. Both, PD-L1 and c-Myc were relatively determined using DMSO treated cells as a negative control and BMS-8 as a positive one.
(§5) For the detection of total PD-L1 and c-Myc, cancer cells were seeded (3 × 10^5 cells/well) in 6-well plates and were incubated with the corresponding compounds for 24 h. Then they were collected, fixed, treated with 0.5% Triton^TM X-100 and stained with Alexa Fluor® 647 Rabbit monoclonal Anti-PD-L1 (ab215251) and FITC Rabbit monoclonal anti-c-Myc (ab223913).
(§6) We also checked results performing ELISA tests. For ELISA tests, lysates were collected, protein quantification was carried out by Bradford test and, then, PD-L1 and c-Myc were quantified using Human PD-L1 ELISA Kit 28-8 (ab214565) and c-Myc (Total) Human ELISA Kit (KHO2041), respectively, according to the manufacturer’s instructions.

c-Myc [8] = assay: c-Myc quantification by flow cytometry in HT-29; format: cell-based, human; conditions: HT-29, 10 μM, 24 h, referred to control (DMSO)
Description: as §4, §5, §6

c-Myc [9] = assay: c-Myc quantification by flow cytometry in A-549; format: cell-based, human; conditions: A-549, 10 μM, 24 h, referred to control (DMSO)
Description: as §4, §5, §6

PD-L1 [10] = biological target: T1, PD-L1; assay: PD-L1 quantification by flow cytometry in A-549; format: cell-based; set-up: endogenous in cells; host or cells: A-549 cancer cells; conditions: A-549, 10 μM, 24 h, referred to control (DMSO)
Description: as §4, §5, §6

VEGFR-2 [11] = biological target: T2, VEGFR-2 (Homo sapiens, UniProt P35968); assay: VEGFR-2 quantification by flow cytometry in HMEC-1; format: cell-based; set-up: Both membrane and total VEGFR-2 were relatively determined using dimethyl sulfoxide (DMSO) treated cells as a negative control; endogenous in cells; host or cells: HMEC-1 (human microvascular endothelial cells); conditions: 10 µM, 24 h, relative to DMSO control
Description: (§7) We performed the study on both a HT-29 cancer cell line and a human microvessel endothelial cell line (HMEC-1). […] The effect of these selected derivatives on VEGFR-2, on HT-29 tumor cell line and on human microvessel endothelial cells (HMEC) was determined by flow cytometry technique. […] For these assays, cells were incubated for 24 h in the presence of the corresponding compounds at 10 µM concentration.

VEGFR-2 [12] = biological target: T2, VEGFR-2; assay: VEGFR-2 quantification by flow cytometry in HT-29; format: cell-based; set-up: Both membrane and total VEGFR-2 were relatively determined using dimethyl sulfoxide (DMSO) treated cells as a negative control; endogenous in cells; host or cells: HT-29 (colon adenocarcinoma) and HMEC-1 (human microvascular endothelial cells); conditions: HT-29, 10 µM, 24 h, relative to DMSO control
Description: as §7

HT-29 cells = assay: Cell proliferation evaluation in co-cultures: HT-29 with Jurkat T cells; format: cell-based, human; conditions: IFN-γ stimulated HT-29 co-cultured with Jurkat T cells, 10 µM, 24 h; five experiments
Description: We also studied the effect of Compounds 16, 23, 26 and 33 on tumor cell proliferation in the presence of PD-1 expressing Jurkat T-cells. For this assay, first interferon γ stimulated HT-29 cells were treated for 24 h with the selected compounds at 10 µM in presence of Jurkat T cells. Then, living cells were counted using trypan blue and a Neubauer chamber and by flow cytometry.
In 12-well plates, 10^5 HT-29 cells per well were seeded and incubated for 24 h with cell culture medium supplemented with IFN-γ (10 ng/mL; human, Invitrogen®) then medium was change by one containing 4 × 10^5 Jurkat T cells per well and 10 μM of the corresponding compound or DMSO for the control. After 24 h of incubation, supernatants were collected to determine Jurkat T cell living cells and, on the other hand, HT-29 cells were collected with trypsin. Both types of suspension cells were counted with the Neubauer chamber and trypan blue and also by flow cytometry.

T2 sequence (P35968 20-1356): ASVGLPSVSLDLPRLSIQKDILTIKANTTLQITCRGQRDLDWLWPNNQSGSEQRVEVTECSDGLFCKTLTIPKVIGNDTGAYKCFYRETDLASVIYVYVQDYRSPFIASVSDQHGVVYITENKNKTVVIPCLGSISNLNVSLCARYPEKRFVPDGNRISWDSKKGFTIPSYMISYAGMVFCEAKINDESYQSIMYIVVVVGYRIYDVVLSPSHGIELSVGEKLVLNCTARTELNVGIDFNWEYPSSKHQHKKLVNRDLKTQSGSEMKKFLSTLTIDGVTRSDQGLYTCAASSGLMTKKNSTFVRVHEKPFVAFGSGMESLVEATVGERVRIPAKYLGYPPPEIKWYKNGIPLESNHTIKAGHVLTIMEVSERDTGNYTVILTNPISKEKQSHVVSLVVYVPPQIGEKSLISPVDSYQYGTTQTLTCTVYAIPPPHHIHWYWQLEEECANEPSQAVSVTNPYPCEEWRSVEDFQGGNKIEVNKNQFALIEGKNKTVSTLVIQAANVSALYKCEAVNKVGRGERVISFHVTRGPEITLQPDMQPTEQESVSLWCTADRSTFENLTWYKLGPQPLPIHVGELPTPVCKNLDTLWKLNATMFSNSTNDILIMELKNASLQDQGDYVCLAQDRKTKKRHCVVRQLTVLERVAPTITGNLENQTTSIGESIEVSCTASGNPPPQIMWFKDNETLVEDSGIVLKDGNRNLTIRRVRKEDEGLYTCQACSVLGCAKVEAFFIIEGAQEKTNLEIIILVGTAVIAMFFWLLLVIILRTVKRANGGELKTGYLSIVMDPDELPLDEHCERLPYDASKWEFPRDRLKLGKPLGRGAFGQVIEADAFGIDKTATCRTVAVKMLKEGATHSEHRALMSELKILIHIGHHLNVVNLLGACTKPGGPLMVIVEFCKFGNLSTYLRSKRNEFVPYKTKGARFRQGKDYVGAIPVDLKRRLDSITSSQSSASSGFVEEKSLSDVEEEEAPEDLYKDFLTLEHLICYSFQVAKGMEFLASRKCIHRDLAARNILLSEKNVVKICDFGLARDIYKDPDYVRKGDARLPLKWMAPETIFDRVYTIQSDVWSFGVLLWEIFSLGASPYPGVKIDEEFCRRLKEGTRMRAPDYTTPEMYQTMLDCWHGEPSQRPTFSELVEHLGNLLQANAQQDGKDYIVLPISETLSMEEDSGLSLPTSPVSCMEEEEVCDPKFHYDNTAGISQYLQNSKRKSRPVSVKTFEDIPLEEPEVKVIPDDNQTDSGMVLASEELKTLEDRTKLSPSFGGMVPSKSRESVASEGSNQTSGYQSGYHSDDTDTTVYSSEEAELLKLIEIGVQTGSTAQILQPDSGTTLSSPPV
T1 sequence (Q9NZQ7 19-290): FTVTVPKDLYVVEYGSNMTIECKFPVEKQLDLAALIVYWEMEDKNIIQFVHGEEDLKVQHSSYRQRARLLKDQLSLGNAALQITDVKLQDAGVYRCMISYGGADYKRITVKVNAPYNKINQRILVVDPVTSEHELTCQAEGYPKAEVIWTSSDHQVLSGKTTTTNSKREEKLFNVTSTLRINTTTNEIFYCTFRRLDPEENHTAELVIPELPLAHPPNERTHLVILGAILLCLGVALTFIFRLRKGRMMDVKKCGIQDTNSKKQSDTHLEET

COc1ccc(CCc2cccc(NC(=O)Nc3cccc(OC)c3)c2)cc1 [Compound 32]
IC50 [1]: 18 ± 3 µM | IC50 [2]: 9.7 ± 0.8 µM | IC50 [3]: 7.1 ± 0.8 µM | IC50 [4]: 22 ± 2 µM | IC50 [5]: 27 ± 1 µM | IC50 [6]: 25 ± 4 µM | PD-L1 (%) relative expression (PD-L1 [7]): 55 ± 11% | c-Myc (%) relative expression (c-Myc [8]): 69 ± 7% | c-Myc (%) relative expression (c-Myc [9]): 77 ± 15% | PD-L1 (%) relative expression (PD-L1 [10]): 59 ± 9% | Membrane VEGFR-2 (%) (VEGFR-2 [11]): 69 ± 8% | Total VEGFR-2 (%) (VEGFR-2 [11]): 98 ± 13% | Membrane VEGFR-2 (%) (VEGFR-2 [12]): 76 ± 5% | Total VEGFR-2 (%) (VEGFR-2 [12]): 93 ± 10%

COc1ccc(/C=C/c2cccc(NC(=O)Nc3cccc(OC)c3)c2)cc1 [Compound 25]
IC50 [1]: 2.2 ± 0.7 µM | IC50 [2]: 4 ± 2 µM | IC50 [3]: 4.3 ± 0.4 µM | IC50 [4]: 1.3 ± 0.5 µM | IC50 [5]: 7 ± 0.5 µM | IC50 [6]: 1.1 ± 0.2 µM | PD-L1 (%) relative expression (PD-L1 [7]): 69 ± 11% | c-Myc (%) relative expression (c-Myc [8]): 74 ± 11% | c-Myc (%) relative expression (c-Myc [9]): 68 ± 9% | PD-L1 (%) relative expression (PD-L1 [10]): 59 ± 8% | Membrane VEGFR-2 (%) (VEGFR-2 [11]): 59 ± 8% | Total VEGFR-2 (%) (VEGFR-2 [11]): 96 ± 9% | Membrane VEGFR-2 (%) (VEGFR-2 [12]): 99 ± 11% | Total VEGFR-2 (%) (VEGFR-2 [12]): 94 ± 7%

COc1ccc(CCc2cccc(NC(=O)Nc3ccc(OC)cc3)c2)cc1 [Compound 33]
IC50 [1]: 8 ± 3 µM | IC50 [2]: 0.9 ± 0.07 µM | IC50 [3]: 0.9 ± 0.03 µM | IC50 [4]: 4.4 ± 0.8 µM | IC50 [5]: 1.4 ± 0.5 µM | IC50 [6]: 1.5 ± 0.6 µM | PD-L1 (%) relative expression (PD-L1 [7]): 38 ± 13% | c-Myc (%) relative expression (c-Myc [8]): 70 ± 10% | c-Myc (%) relative expression (c-Myc [9]): 83 ± 12% | Living HT-29 cell proliferation (%) (HT-29 cells): 62% | PD-L1 (%) relative expression (PD-L1 [10]): 42 ± 11% | Membrane VEGFR-2 (%) (VEGFR-2 [11]): 66 ± 5% | Total VEGFR-2 (%) (VEGFR-2 [11]): 93 ± 8% | Membrane VEGFR-2 (%) (VEGFR-2 [12]): 68 ± 13% | Total VEGFR-2 (%) (VEGFR-2 [12]): 100 ± 10%

Cc1c(COc2ccc(CN3CCCCC3C(=O)O)cc2Br)cccc1-c1ccccc1 (stereo not drawn) [BMS-8, reference compound]
IC50 [1]: 6 ± 1 µM | IC50 [2]: 60 ± 10 µM | IC50 [4]: 19 ± 2 µM | IC50 [5]: > 100 µM | IC50 [6]: 20 ± 3 µM | PD-L1 (%) relative expression (PD-L1 [7]): 62 ± 3% | c-Myc (%) relative expression (c-Myc [8]): 99 ± 4% | c-Myc (%) relative expression (c-Myc [9]): 60 ± 7% | Living HT-29 cell proliferation (%) (HT-29 cells): 45% | PD-L1 (%) relative expression (PD-L1 [10]): 68 ± 5%

COc1ccc(/C=C/c2cccc(NC(=O)Nc3ccc(OC)cc3)c2)cc1 [Compound 26]
IC50 [1]: 13 ± 3 µM | IC50 [2]: 1.4 ± 0.6 µM | IC50 [3]: 1.9 ± 0.6 µM | IC50 [4]: 0.2 ± 0.2 µM | IC50 [5]: 4 ± 1 µM | IC50 [6]: 0.7 ± 0.3 µM | PD-L1 (%) relative expression (PD-L1 [7]): 33 ± 10% | c-Myc (%) relative expression (c-Myc [8]): 57 ± 9% | c-Myc (%) relative expression (c-Myc [9]): 63 ± 7% | Living HT-29 cell proliferation (%) (HT-29 cells): 62% | PD-L1 (%) relative expression (PD-L1 [10]): 50 ± 3% | Membrane VEGFR-2 (%) (VEGFR-2 [11]): 65 ± 9% | Total VEGFR-2 (%) (VEGFR-2 [11]): 83 ± 7% | Membrane VEGFR-2 (%) (VEGFR-2 [12]): 68 ± 9% | Total VEGFR-2 (%) (VEGFR-2 [12]): 95 ± 9%

COc1ccc(/C=C\c2cccc(NC(=O)Nc3ccc(OC)cc3)c2)cc1 [Compound 19]
IC50 [1]: 12 ± 2 µM | IC50 [2]: 10 ± 1 µM | IC50 [3]: 11 ± 1 µM | IC50 [4]: 14 ± 3 µM | IC50 [5]: 5 ± 2 µM | IC50 [6]: 8 ± 3 µM | PD-L1 (%) relative expression (PD-L1 [7]): 36 ± 9% | c-Myc (%) relative expression (c-Myc [8]): 47 ± 8% | c-Myc (%) relative expression (c-Myc [9]): 79 ± 10% | PD-L1 (%) relative expression (PD-L1 [10]): 98 ± 10% | Membrane VEGFR-2 (%) (VEGFR-2 [11]): 98 ± 8% | Total VEGFR-2 (%) (VEGFR-2 [11]): 99 ± 16% | Membrane VEGFR-2 (%) (VEGFR-2 [12]): 88 ± 14% | Total VEGFR-2 (%) (VEGFR-2 [12]): 97 ± 7%

COc1ccc(/C=C\c2cccc(NC(=O)Nc3ccccc3OC)c2)cc1 [Compound 17]
IC50 [1]: 18 ± 1 µM | IC50 [2]: 27 ± 5 µM | IC50 [3]: 10 ± 1 µM | IC50 [4]: 15 ± 1 µM | IC50 [5]: 15 ± 2 µM | IC50 [6]: 15 ± 1 µM | PD-L1 (%) relative expression (PD-L1 [7]): 60 ± 12% | c-Myc (%) relative expression (c-Myc [8]): 58 ± 13% | c-Myc (%) relative expression (c-Myc [9]): 45± 9% | PD-L1 (%) relative expression (PD-L1 [10]): 79 ± 9% | Membrane VEGFR-2 (%) (VEGFR-2 [11]): 99 ± 7% | Total VEGFR-2 (%) (VEGFR-2 [11]): 97 ± 9% | Membrane VEGFR-2 (%) (VEGFR-2 [12]): 47 ± 16% | Total VEGFR-2 (%) (VEGFR-2 [12]): 98 ± 12%
